Test results taken from patent EP3315130A1, “HYALURONIC ACID COMPOSITION INCLUDING MEPIVACAINE” (Laboratoires Vivacy, priority 2016, dated 2018).

Assays:
ecchymose = assay: Clinical evaluation of occurrence and severity of ecchymosis after injection of hyaluronic acid compositions; design: species or system patients; conditions: human, in vivo
Procedure: (§1) Deux types de composition aqueuse à base d'acide hyaluronique (concentration 20 mg/g) sont préparés.
(§2) Toutes les compositions sont issues d'un mélange monophasique tel que celui décrit dans la demande de brevet WO 2009/071697 au nom de la demanderesse, et comprennent du mannitol (concentration 35 mg/g).
(§3) Deux groupes A et B de 64 patients chacun sont formés (128 patients au total).
(§4) Le groupe B est injecté au niveau du sillon naso-génien au moyen de la composition aqueuse à base d'acide hyaluronique comprenant du mannitol et de la mépivacaïne

oedème = assay: Clinical evaluation of occurrence and severity of oedema after injection of hyaluronic acid compositions; design: species or system patients; conditions: human, in vivo
Procedure: as §1, §2, §3, §4

For mépïvacaïne, the “Ecchymose - Aucune” value (ecchymose) was 42, the “Ecchymose - Légère ou modérée” value (ecchymose) was 22 and the “Ecchymose - Sévère” value (ecchymose) was 0. For the same substance, the “OEdème - Aucun” value (oedème) was 63, the “OEdème - Léger ou modéré” value (oedème) was 1 and the “OEdème - Sévère” value (oedème) was 0.
